The record followed here is publication PMC7956643, “Synthesis of Novel Pyrido[1,2-c]pyrimidine Derivatives with 6-Fluoro-3-(4-piperidynyl)-1,2-benzisoxazole Moiety as Potential SSRI and 5-HT1A Receptor Ligands” (International Journal of Molecular Sciences, 2021).

Structures are written as SMILES. “Also recorded” adds a separate entry of the source. Marks after values point to notes of the source that are not given here.

For orientation: Ki means a dissociation constant, usually derived from enzyme kinetics or from competition with a known ligand.

Assay [1] concerns the target T1, 5-HT6 receptors (Homo sapiens, UniProt P50406).
T1 construct: expressed in transfected cells
Kind of assay: 5-HT6 radioligand binding assay. The settings on record: [3H]-LSD; HEK293 cells, human receptor. The procedure: (§1) In vitro radioligand binding assays for 5-HT2A, 5-HT6, 5-HT7 and D2 receptors were carried out using methods published by Zajdel et al.. For the assays, HEK293 cell cultures stably expressing the investigated human receptors were used. Cell pellets were thawed and homogenized in 20 vol of assay buffer using an Ultra Turrax tissue homogenizer, then centrifuged twice at 35000 g for 20 min at 4 °C, with incubation for 15 min at 37 °C in between. The composition of the assay buffers was as follows: for 5-HT2A receptors—50 mM Tris-HCl, 0.1 mM EDTA, 4 mM MgCl2 and 0.1% ascorbate; for 5-HT6 receptors—50 mM Tris-HCl, 0.5 mM EDTA, 4 mM MgCl2; for 5-HT7 receptors—50 mM Tris-HCl, 4 mM MgCl2, 10 µM pargyline and 0.1% ascorbate; for D2 receptors—50 mM Tris-HCl, 1 mM EDTA, 4 mM MgCl2, 120 mM NaCl, 5 mM KCl, 1.5 mM CaCl2 and 0.1% ascorbate. All assays were incubated in total volume of […] in 96-well microtitre plates for 1 h at 37 °C, except for 5-HT2A receptors which were incubated at room temperature for 1.5 h. The process of equilibration was terminated by rapid filtration through Unifilter plates with a 96-well cell harvester, and radioactivity retained on the filters was quantified on a Microbeta plate reader (PerkinElmer, USA). For displacement studies, the assay samples contained as radioligands (PerkinElmer): 2 nM [^3H]-ketanserin (spec. act. 53.4 Ci/mmol) for 5-HT2A receptors; 2 nM [^3H]-LSD (spec. act. 83.6 Ci/mmol) for 5-HT6 receptors; 0.6 nM [^3H]-5-CT (spec. act. 39.2 Ci/mmol) for 5-HT7 receptors and [^3H]-raclopride (spec. act. 76.0 Ci/mmol) for D2 receptors. […] Each compound was tested in triplicate at 7–8 concentrations (10^-11-10^-4 M). The inhibition constants (Ki) were calculated from the Cheng–Prusoff equation [46]. Results were expressed as means of at least two separate experiments.

Assay [2] addresses T2, 5-HT1A receptor (Mus musculus, UniProt Q64264).
T2 construct: from tissue; host or cells: whole animal, male CD-1 mice
T2 sequence (Q64264 1-421): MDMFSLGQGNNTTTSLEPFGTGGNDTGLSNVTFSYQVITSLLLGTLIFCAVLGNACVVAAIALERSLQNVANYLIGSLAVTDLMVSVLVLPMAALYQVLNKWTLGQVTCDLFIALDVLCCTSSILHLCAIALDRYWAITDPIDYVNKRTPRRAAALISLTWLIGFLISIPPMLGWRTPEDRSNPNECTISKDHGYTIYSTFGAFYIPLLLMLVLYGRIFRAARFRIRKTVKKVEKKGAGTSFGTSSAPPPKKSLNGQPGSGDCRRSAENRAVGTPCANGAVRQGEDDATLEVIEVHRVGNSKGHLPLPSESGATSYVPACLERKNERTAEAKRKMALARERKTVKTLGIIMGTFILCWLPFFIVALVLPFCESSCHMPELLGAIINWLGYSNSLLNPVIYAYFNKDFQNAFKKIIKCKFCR
The assay is described as follows: Effect of WAY-100635 on the hypothermia induced by tested compounds. It counts as in vivo, CD-1 mice. The settings on record: mice. The procedure: (§2) The experiments were performed on male CD-1 mice (23–40 g). The animals were kept at room temperature (21 ± 2 °C) on a natural day-night cycle (March–October) and housed under standard laboratory conditions. They had free access to food and tap water before the experiment. Each experimental group consisted of 6–8 animals/dose. All the animals were used only once. 8-Hydroxy-2-(di-n-propylamino)tetralin hydro-bromide (8-OH-DPAT, Research Biochemical Inc.) was used as aqueous solution. […] Vehicle group was administered as 10% aqueous solution of dimethyl sulphoxide (DMSO). 8-OH-DPAT was injected subcutaneously (sc); 6a and 7g were given intraperitoneally (ip) in a volume of 10 mL/kg/mice. The obtained data were analyzed by Dunnett’s test (one drug administration) or by the Newman–Keuls test (two drugs administrations). Forced swim test: the obtained data was evaluated by one-way analysis of variance (ANOVA) followed by the Dunnett’s multiple comparisons test: p < 0.05 was considered significant.
(§3) The results were expressed as a change in body temperature (Δt) with respect to the basal body temperature, as measured at the beginning of the experiment.

For assay [3], the target named is T3, D2 receptors (Homo sapiens, UniProt P14416).
T3 construct: expressed in transfected cells
T3 sequence (P14416 whole entry): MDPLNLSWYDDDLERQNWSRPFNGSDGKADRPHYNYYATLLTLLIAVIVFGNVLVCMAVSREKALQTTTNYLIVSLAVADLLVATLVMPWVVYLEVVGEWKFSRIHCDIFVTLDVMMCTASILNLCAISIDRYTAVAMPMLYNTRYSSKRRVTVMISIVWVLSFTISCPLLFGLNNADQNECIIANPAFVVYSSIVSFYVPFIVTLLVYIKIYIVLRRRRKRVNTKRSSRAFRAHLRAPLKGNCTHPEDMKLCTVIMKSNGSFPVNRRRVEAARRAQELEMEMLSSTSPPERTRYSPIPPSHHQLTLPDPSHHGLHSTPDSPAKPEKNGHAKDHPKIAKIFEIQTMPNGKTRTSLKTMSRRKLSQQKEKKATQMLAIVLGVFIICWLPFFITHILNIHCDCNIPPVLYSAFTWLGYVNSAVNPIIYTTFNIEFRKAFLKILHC
The assay is described as follows: D2 radioligand binding assay. As to conditions: [3H]-raclopride; HEK293 cells, human receptor. Here is the method:
as §1

Assay [4] deals with T4, SERT protein (Rattus norvegicus, UniProt P31652).
T4 construct: from tissue; host or cells: rat cortex
T4 sequence (P31652 whole entry): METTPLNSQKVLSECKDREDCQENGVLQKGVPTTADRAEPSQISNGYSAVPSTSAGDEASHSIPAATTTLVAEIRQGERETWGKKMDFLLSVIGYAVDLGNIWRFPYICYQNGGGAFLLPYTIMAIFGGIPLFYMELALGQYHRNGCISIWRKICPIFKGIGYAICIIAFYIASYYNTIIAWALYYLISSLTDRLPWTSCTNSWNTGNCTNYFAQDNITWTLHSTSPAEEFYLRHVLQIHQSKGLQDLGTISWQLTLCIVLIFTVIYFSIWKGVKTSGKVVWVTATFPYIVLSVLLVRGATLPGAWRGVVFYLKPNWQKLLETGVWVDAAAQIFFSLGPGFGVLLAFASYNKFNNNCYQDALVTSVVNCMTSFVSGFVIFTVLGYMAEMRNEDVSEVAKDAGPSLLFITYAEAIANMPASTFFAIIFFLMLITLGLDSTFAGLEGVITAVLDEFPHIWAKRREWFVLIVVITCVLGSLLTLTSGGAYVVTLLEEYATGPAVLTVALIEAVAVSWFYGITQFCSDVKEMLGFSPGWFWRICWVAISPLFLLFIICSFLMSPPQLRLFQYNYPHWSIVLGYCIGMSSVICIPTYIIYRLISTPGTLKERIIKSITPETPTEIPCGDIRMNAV
Kind of assay: SERT radioligand binding assay. The settings on record: [3H]-citalopram 1.0 nM; rat cortex tissue. The procedure: Radioligand binding was performed using rat cortex tissue. All assays were carried out in duplicate. First, 50 µL working solution of the tested compounds, 50 µL [^3H]-citalopram (final concentration 1.0 nM) and 150 µL tissue suspension, prepared in assay buffer (50 mM Tris. pH 7.7; 150 mM NaCl; 5 mM KCl), were transferred to a polypropylene 96-well microplate using 96-wells pipetting station Rainin Liquidator (MettlerToledo). […] The reaction was terminated by rapid filtration through GF/B filter mate presoaked with 0.3% polyethyleneimine for 30 min. Ten rapid washes with 200 µL 50 mM Tris buffer (4 °C, pH 7.7) were performed using an automated harvester system—Harvester-96 MACH III FM (Tomtec). […] Data were fitted to a one-site curve-fitting equation with Prism 6 (GraphPad Software) and Ki values were estimated from the Cheng–Prusoff equation.

Assay [5] concerns the target T2, 5-HT1A receptor. Kind of assay: Body temperature in mice (induced hypothermia). In kind it is in vivo, CD-1 mice. Here is the method:
as §2, §3

Assay [6] addresses T5, 5-HT7 receptors (Homo sapiens, UniProt P34969).
T5 construct: expressed in transfected cells
The assay is described as follows: 5-HT7 radioligand binding assay. As to conditions: [3H]-5-CT; HEK293 cells, human receptor. The procedure: as §1

T5 sequence (P34969 whole entry): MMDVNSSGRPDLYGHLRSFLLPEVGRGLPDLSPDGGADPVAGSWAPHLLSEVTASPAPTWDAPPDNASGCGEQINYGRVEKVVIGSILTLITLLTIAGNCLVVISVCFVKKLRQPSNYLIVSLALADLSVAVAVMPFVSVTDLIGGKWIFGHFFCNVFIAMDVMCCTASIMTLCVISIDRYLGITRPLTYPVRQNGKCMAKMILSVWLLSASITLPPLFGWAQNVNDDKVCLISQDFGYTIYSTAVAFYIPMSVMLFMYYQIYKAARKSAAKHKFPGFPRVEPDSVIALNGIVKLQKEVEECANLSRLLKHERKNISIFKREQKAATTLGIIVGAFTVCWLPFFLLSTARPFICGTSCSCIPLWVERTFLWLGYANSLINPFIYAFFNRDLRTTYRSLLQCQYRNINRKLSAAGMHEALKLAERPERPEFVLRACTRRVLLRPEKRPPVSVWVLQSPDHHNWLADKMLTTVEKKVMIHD
T1 sequence (P50406 whole entry): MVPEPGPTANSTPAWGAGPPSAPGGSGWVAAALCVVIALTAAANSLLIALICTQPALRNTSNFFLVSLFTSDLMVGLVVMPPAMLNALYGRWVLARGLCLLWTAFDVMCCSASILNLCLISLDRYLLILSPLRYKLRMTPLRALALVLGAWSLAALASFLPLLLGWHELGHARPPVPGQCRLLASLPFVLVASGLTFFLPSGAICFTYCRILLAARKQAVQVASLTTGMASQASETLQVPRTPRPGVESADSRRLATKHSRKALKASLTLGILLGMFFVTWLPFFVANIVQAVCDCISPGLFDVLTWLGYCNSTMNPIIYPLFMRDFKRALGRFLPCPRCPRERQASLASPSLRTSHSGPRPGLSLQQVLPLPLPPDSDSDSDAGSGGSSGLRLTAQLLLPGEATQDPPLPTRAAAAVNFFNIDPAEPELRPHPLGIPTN

In the case of `O=c1c(-c2ccccc2)c2ccccn2c(=O)n1CCCCN1CCC(c2noc3cc(F)ccc23)CC1` [Compound 6a, 4-Phenyl-2-{4-[4-(6-fluoro-1,2-benzoxazol-3-yl)-1-piperidyl]butyl}-pyrido[1,2-c]pyrimidine-1,3-dione], the Ki in assay [1] came to 376 ± 58 nM; in assay [3] it was 7 ± 2 nM; in assay [4], 32 ± 3.6 nM; in assay [6], 62 ± 5 nM. Moreover, the “Δt ± SEM, body temperature” value was −0.5 ± 0.2 ^b,d °C in assay [2] (WAY-100635 0.1 mg/kg sc 15 min before compound 0.6 mg/kg, 30 min); −0.4 ± 0.2 ^a,e °C in assay [2] (WAY-100635 0.1 mg/kg sc 15 min before compound 0.6 mg/kg, 60 min); −1.0 ± 0.2 ^c °C in assay [2] (vehicle + compound 0.6 mg/kg, 30 min); −1.2 ± 0.1 ^c °C in assay [2] (vehicle + compound 0.6 mg/kg, 60 min); −1.0 ± 0.2 ^b °C in assay [5] (mice, 0.6 mg/kg ip, 30 min); −1.2 ± 0.1 ^b °C in assay [5] (mice, 0.6 mg/kg ip, 60 min). For the same compound, the “Δt ± SEM, body temperature” value in assay [5] (mice, 0.6 mg/kg ip, 90 min) was −0.9 ± 0.1 ^a °C; in assay [5] (mice, 0.6 mg/kg ip, 120 min) it was −0.8 ± 0.2 ^a °C; in assay [5] (mice, 1.25 mg/kg ip, 30 min), −1.7 ± 0.3 ^b °C; in assay [5] (mice, 1.25 mg/kg ip, 60 min) it was −1.7 ± 0.3 ^b °C; in assay [5] (mice, 1.25 mg/kg ip, 90 min), −1.6 ± 0.2 ^b °C; in assay [5] (mice, 1.25 mg/kg ip, 120 min), −1.6 ± 0.3 ^b °C. Moreover, the “Δt ± SEM, body temperature” value in assay [5] (mice, 2.5 mg/kg ip, 30 min) was −1.6 ± 0.2 ^b °C; in assay [5] (mice, 2.5 mg/kg ip, 60 min), −2.5 ± 0.3 ^b °C; in assay [5] (mice, 2.5 mg/kg ip, 90 min), −2.4 ± 0.3 ^b °C; in assay [5] (mice, 2.5 mg/kg ip, 120 min) it was −2.0 ± 0.2 ^b °C; in assay [5] (mice, 5 mg/kg ip, 30 min) it was −2.0 ± 0.2 ^b °C; in assay [5] (mice, 5 mg/kg ip, 60 min), −3.2 ± 0.5 ^b °C. In addition, the “Δt ± SEM, body temperature” value is −3.1 ± 0.5 ^b °C in assay [5] (mice, 5 mg/kg ip, 90 min) and −2.8 ± 0.5 ^b °C in assay [5] (mice, 5 mg/kg ip, 120 min). Moreover, the “Hypothermia induced by compound diminished by WAY-100635” value in assay [2] (WAY-100635 0.1 mg/kg, compound 0.6 mg/kg) is given as 50%. Moreover, the “Functional 5-HT1A receptor activity profile” value in assay [5] (concluded from induced hypothermia test in mice) is “presynaptic agonist of the 5-HT1A receptor; also recorded: presynaptic 5-HT1A agonistic activity”. Moreover, the “Induction of hypothermia in mice” value in assay [5] (mice) is given as “induced hypothermia”.
In the case of `O=c1c(-c2ccccc2Cl)c2ccccn2c(=O)n1CCCCN1CCC(c2noc3cc(F)ccc23)CC1` [Compound 6d, 4-(2-Chlorophenyl)-2-{4-[4-(6-fluoro-1,2-benzoxazol)-1-piperidyl]butyl}-pyrido[1,2-c]pyrimidine-1,3-dione], the Ki in assay [1] is 709 ± 135 nM; in assay [3] it was 9 ± 2 nM; in assay [4], 373 ± 32 nM; in assay [6], 109 ± 14 nM.
